Measured values taken from PubChem BioAssay AID179 (DTP/NCI, 2004).
Several values for one entry are separate records, joined by “and”; a condition that tells them apart may be missing. Equal entries are not always repeated. Activity calls are given as the source filed them.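 Rule for the calls: active = compounds giving half or more protection of infected cells from virus-caused growth loss, again on retest; inactive = the rest.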 Where a SMILES comes first, the peptide text is derived from it. The star is where a group is joined. Cbz = O=C(OCc1ccccc1)*; NHNH2 = NN*

Test system: CEM cells HIV-1 protection, formazan growth assay
Assay: NCI AIDS Antiviral Assay
Conditions: for IC50: measured here: growth of uninfected CEM cells
Procedure, shortened: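 Steps: treat uninfected and HIV-1-infected human CEM cells at five drug levels; quantify growth by soluble formazan; retest any compound reaching 50% protection; classify actives from the retest.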

Compound	EC50	IC50	outcome
Oc1ccc(-c2csc(NNC3=NC/C(=C/c4ccc5c(c4)OCO5)S3)n2)cc1O	> 200 µM	64.6 µM	
CCC(=O)OC1CCn2c1nc1c2C(=O)C(C)=C(NC(C)=O)C1=O (centres undefined)	> 200 µM	1.23 µM	
O=c1c2ccccc2nnn1N1CCOCC1	> 81.3 µM	> 81.3 µM	
COC1/C=C/OC2(C)Oc3c(C)c(O)c4c(O)c(c(/C=N/NC5C6CC7CC(C6)CC5C7)c(O)c4c3C2=O)NC(=O)/C(C)=C/C=C/C(C)C(O)C(C)C(O)C(C)C(OC(C)=O)C1C (centres undefined)	> 200 µM	9.12 µM	
O=C(O)CC[N+]1=CCC(c2ccccc2)(c2ccccc2)O1	> 832 µM	> 832 µM	
Cc1c2ccc(Cl)cc2nc2ccc(OCCCCCCNC(=O)CCCN=C(N)N)cc12	> 50.1 µM	22.9 µM	
Cc1c(/C=N/NC(=O)c2ccccc2)c(=O)n(-c2ccccc2)n1C	> 200 µM	> 200 µM	
COc1ccc(N2CC(=O)N(C(=O)COc3ccc(OCC(=O)N4C(=O)CN(c5ccc(OC)cc5)C4=S)cc3)C2=S)cc1	> 200 µM	87.1 µM	
N#Cc1c2c(cn3c1nc1ccccc13)CCCC2	> 200 µM	107 µM	
C(/C=C/c1ccccc1)=Nc1ccc(CCc2ccc(N=C/C=C/c3ccccc3)cc2)cc1	> 1.23 µM	> 1.23 µM	
c1ccc2c3c([nH]c2c1)[C@H]1C2CCCCN2CN1CC3 (some centres undefined)	> 676 µM	214 µM	
COc1cc(/C=C2/SC(c3ccccc3)N(c3ccc(Cl)cc3)C2=O)cc(OC)c1OC (centres undefined)			inactive
CC(=O)OC1(C#N)CC2OC1C1N=NN(C(=O)OC(C)(C)C)C21 (centres undefined)	> 155 µM	14.8 µM	
Cc1cc(C(C)(C)C)cc(Cc2cc(C(C)(C)C)cc(Cc3cc(C(C)(C)C)cc(C)c3O)c2O)c1O	> 20 µM	> 20 µM	
O=c1c2nn3c(=O)n(-c4ccccc4)c(=O)c3nn2c(=O)n1-c1ccccc1	> 200 µM	> 200 µM	
CNn1c(C)n[nH]c1=O	> 200 µM	> 200 µM	
CCOC(=O)CCC(NC(=O)OCc1ccccc1)C(=O)NC(CCC(=O)OCC)C(=O)NN (centres undefined) (Cbz-Glu(OEt)-Glu(OEt)-NHNH2; configuration not given here)	> 200 µM	> 200 µM	
Cc1cccc2c1C(=O)[C@@](C)([C@]1(C)Nc3cccc(C)c3C1=O)N2	> 200 µM	> 200 µM	
CC[C@]1(Cc2ccc(OC)c(OC)c2)C=[N+]([O-])O[C@H](OC2CCCC2(c2ccccc2)c2ccccc2)[C@@H]1OC(C)=O (some centres undefined)	> 200 µM	3.8 µM	
CCCCNC(=S)/N=C/c1c(O)cc(C)oc1=O	> 200 µM	> 200 µM	
Cc1ccc(-c2cc(=O)c(=O)[nH][nH]2)cc1	> 200 µM	> 200 µM	
N#CCCN(CCCCN(CCC#N)C(=O)Nc1ccccc1)C(=O)Nc1ccccc1	> 200 µM	> 200 µM	

Compound	EC50	IC50	outcome
O=C1/C(=C\c2ccccn2)c2ccccc2N1Cc1ccccc1	> 22.9 µM	12.6 µM	
CSc1nc(NC2OC(COC(C)=O)C(OC(C)=O)C(OC(C)=O)C2OC(C)=O)c(N=CC=Nc2c(NC3OC(COC(C)=O)C(OC(C)=O)C(OC(C)=O)C3OC(C)=O)nc(SC)[nH]c2=O)c(=O)[nH]1 (centres undefined)			inactive
CSc1cccc(-n2c3nc(=O)n(C)c(=O)c-3nc3ccccc32)c1			inactive
CC(=O)N(O)CCCCCNC(=O)CCC(=O)N(O)CCCCCNC(=O)CCC(=O)N(O)CCCCCN	> 110 µM	4.57 µM and 3.63 µM	
O=C(O)c1cc2ccccc2c(S(=O)(=O)O)c1O	> 200 µM	> 200 µM	
CC(=O)OCC1OC(OC2=C(c3ccccc3)C(=O)C(OC3OC(COC(C)=O)C(OC(C)=O)C(OC(C)=O)C3OC(C)=O)=C(c3ccccc3)C2=O)C(OC(C)=O)C(OC(C)=O)C1OC(C)=O (centres undefined)	> 33.9 µM	5.89 µM	
CC(=O)O[C@H]1CCC(C)=CCC[C@@]2(C)C(CC[C@@H]2[C@@H](C)/C=C/C(C)C)c2ccc(cc2C(=O)O)C1 (some centres undefined)			inactive
Brc1cc2[nH]c(-c3ccccc3)c(Br)c2c(Br)c1Br	> 200 µM	5.13 µM	
Cc1nc(N)nc(N)c1N1CCN(c2ccc(S(=O)(=O)N(Cc3ccccc3)Cc3ccccc3)cc2)CC1	0.0501 µM	0.132 µM	
O=C(CSc1nnc(-c2ccc(N=Cc3ccc(Cl)cc3)cc2)o1)Nc1ccccc1[N+](=O)[O-]	> 20.4 µM	> 20.4 µM	
Cc1c(NC(=O)CCl)c(=O)oc2c(C)c3occc(=O)c3cc12	> 40.7 µM	0.204 µM	
O=C(O)c1ccccc1/C=N/NC1=CS(=O)(=O)C=C1			inactive
Cc1nn(C(=O)c2ccccc2O)c2c1C(c1ccc3ccccc3c1O)SC(N)=N2 (centres undefined)	> 2 µM	1.38 µM	
COc1cc2c(cc1OC)C(Cl)C(c1ccc(Cl)c(Cl)c1)=C2Cl (centres undefined)			inactive
CCCCC(C(=O)C(=O)NC1C2CC3CC(C2)CC1C3)C(=O)C(C)C (centres undefined)	> 74.1 µM	> 74.1 µM	
CC12C=C[C@]3(CC[C@@H]4[C@@](C)(CO)CCC[C@]4(C)C3CC1)C2 (some centres undefined)			inactive
Cc1ccc(S(=O)(=O)OC2COCOC2C2OCOC3COCOC32)cc1 (centres undefined)	> 200 µM	> 200 µM	
C=C1C(=O)O[C@H]2C3OC3(C)CC/C=C(/C(=O)OC)[C@@H](OC(C)=O)[C@H](OC(=O)C3(C)OC3C)[C@H]12 (some centres undefined)			inactive
O=C(O)/C=C/c1c2ccc(=O)cc-2oc2cc(O)ccc12	> 200 µM	28.8 µM	
C=C1CCC(CC[C@@H]2CC[C@]3(OC2)O[C@@]2(O)CC[C@]3(C)OC2(C)C)C(C)(C)[C@H]1C/C=C1/C(=O)OC[C@@H]1O (some centres undefined)			inactive
CCOC(=O)C12C(C(=O)O)=C(N)CN1CCc1c2[nH]c2ccccc12 (centres undefined)	> 58.9 µM	> 58.9 µM	
COc1cccc(/C=C(\C#N)C(=O)c2ccccc2)c1	> 97.7 µM	> 97.7 µM	

Compound	EC50	IC50	outcome
CCOC(=O)C1=CNc2ccccc2N=C1N	> 200 µM	34.7 µM	
Cc1nnc(N)nc1/C=C/c1c(O)ccc2ccccc12	> 200 µM	26.3 µM	
Nc1ncnc2c1[nH]c(=O)n2-c1ccccc1	> 200 µM	178 µM	
CC(C)(SSC(C)(C)C(N)C(=O)O)C(N)C(=O)O (centres undefined)	> 427 µM	> 427 µM	
CCNC(=S)NNC(=O)c1csc(NC(=S)NC2CCCCC2)n1	> 200 µM	6.61 µM	
CCC(=O)c1c(NOC2OCC(OC(C)=O)C(OC(C)=O)C2OC(C)=O)nc(OC)n(C)c1=O (centres undefined)	> 53.7 µM	> 53.7 µM	
CCCCN(CCCC)C(=O)C(=O)CC(=O)/C=C/c1ccccc1	> 288 µM	> 288 µM	
CCOC(=O)/C(C#N)=C/c1ccc(N(C)C)cc1	> 77.6 µM	> 77.6 µM	
Cc1cc(S(=O)(=O)Nc2nc(N)nc(N3N=CCC3C)n2)c(SCC(=O)O)cc1Cl (centres undefined)	> 200 µM	> 200 µM	
COc1ccc(NC(=S)N/N=C/c2ccccn2)cc1	> 2 µM	0.316 µM	
CC(C)(C)OC(=O)NC1CCCCC1NC(=O)C(=O)NC1CCCCC1NC(=O)OC(C)(C)C (centres undefined)	> 100 µM	> 100 µM	
CCOC(=O)c1c2c3c(cccc3[nH]c1=O)Sc1ncccc1-2	> 200 µM	15.8 µM	
CN1CCC2CCCCN2CC1=O (centres undefined)	> 1150 µM	> 1150 µM	
O=C(O)c1cocc1C(=O)O			inactive
Cc1ccc(NC(=O)/C(Cc2nc3ccc([N+](=O)[O-])cc3[nH]c2=O)=N\NC(=O)C[n+]2ccccc2)c(C)c1	> 234 µM	170 µM	
CC(C)=NNC=N/C(C#N)=C(\N)C#N	> 200 µM	> 200 µM	
CC(C)C1/C(=N/O)CC(c2ccccc2)N(N=O)C1c1ccccc1 (centres undefined)	> 200 µM	66.1 µM	
COc1ccc2c(C)cc(N/N=C(\C)C=O)nc2c1	> 200 µM	4.07 µM	
O=c1[nH]c(Cc2ccccc2)nc2c1sc1nc3ccccc3n12	> 200 µM	> 200 µM	
COc1ccccc1NC(=O)CC(=O)n1nc(C)c(N=Nc2ccccc2F)c1C			inactive
O=C1OC(=O)C2=C1CCc1ccccc12			inactive
COC(=O)C1=C(O)C(C(=O)OC)[C@]2(O)[C@@H](C(=O)OC)[C@H]1C[C@@H](c1ccccc1)[C@@H]2C(=O)OC (some centres undefined)	> 200 µM	18.6 µM	

Compound	EC50	IC50	outcome
Cc1cccc(C)c1NC(=S)/N=C/C1=C(O)c2ccccc2C1=O	> 200 µM	15.8 µM	
Cc1oc(-c2cccc(F)c2)nc1C(N)=O	> 200 µM	> 200 µM	
CC1CC2(C)ON=C(c3ccccc3)N2c2ccccc2S1 (centres undefined)			inactive
C/C=C/C1(C)/C(=N\O)C(C)(CCC)C(=O)N1O (centres undefined)	25.1 µM	1050 µM	
CC1(C)SC(C)(C)N2C(=O)[C@H]3N(C(=O)[C@@H]21)C(C)(C)SC3(C)C	> 75.9 µM	> 75.9 µM	
CC1(C)OCN(c2ccc(N3CCOCC3)cc2)Cn2c1nc1ccccc12	> 200 µM	64.6 µM	
CC1CN=C(N(C(=O)Nc2ccccc2)c2ccccc2)S1 (centres undefined)	> 200 µM	> 200 µM	
O=c1[nH]c(=O)n([C@H]2C[C@@H](CO)[C@@H](O)C2)cc1I	> 708 µM	> 708 µM	
C=CCn1c(=S)sc2c(=O)[nH]cnc21	> 1120 µM	195 µM	
CCOC(=O)C[P+](c1cccc(OC)c1)(c1cccc(OC)c1)c1cccc(OC)c1	> 200 µM	46.8 µM	
Cn1nc2n(c1=O)CCCN2	> 200 µM	> 200 µM	
CCOC(=O)[C@]12C3C=CC(C3)C1C(=O)C1OC12 (some centres undefined)	> 562 µM	> 562 µM	
COc1ccc(OC)c(/C=C2\CCc3ccccc3C2=O)c1	> 17.8 µM	2.88 µM	
COc1cc(-c2c(C)c(C)nc(OC)c2C#N)cc(OC)c1OC	22.9 µM	> 100 µM	
O=C(CC(=O)C1CCOC1=O)C(=O)Nc1cccc(Cl)c1 (centres undefined)			inactive
CC(=O)[O-].CCCCCCC/C=N/[N-]C(=O)c1ccncc1.[Co+2].[OH3+].[OH3+].[OH3+].[OH3+]	> 200 µM	115 µM	
NCCC(O)C(=O)NC1CC(N)C(OC2OC(CN)C(O)C(O)C2O)C(O)C1OC1OC(CO)C(O)C(N)C1O (centres undefined)			inactive
O=c1c2c(sc3ccccc13)CCC2	> 151 µM	> 151 µM	
O=c1oc2ccccc2c(O)c1-c1cccc2ccccc12			inactive
